Measured values taken from ChEMBL document CHEMBL3352758, “Structural Analysis of the Binding of Type I, I1/2, and II Inhibitors to Eph Tyrosine Kinases” (ACS Med Chem Lett, 2015).

Molecular target: T1, Ephrin type-B receptor 4 (Homo sapiens, UniProt P54760)
T1 sequence (P54760 whole entry): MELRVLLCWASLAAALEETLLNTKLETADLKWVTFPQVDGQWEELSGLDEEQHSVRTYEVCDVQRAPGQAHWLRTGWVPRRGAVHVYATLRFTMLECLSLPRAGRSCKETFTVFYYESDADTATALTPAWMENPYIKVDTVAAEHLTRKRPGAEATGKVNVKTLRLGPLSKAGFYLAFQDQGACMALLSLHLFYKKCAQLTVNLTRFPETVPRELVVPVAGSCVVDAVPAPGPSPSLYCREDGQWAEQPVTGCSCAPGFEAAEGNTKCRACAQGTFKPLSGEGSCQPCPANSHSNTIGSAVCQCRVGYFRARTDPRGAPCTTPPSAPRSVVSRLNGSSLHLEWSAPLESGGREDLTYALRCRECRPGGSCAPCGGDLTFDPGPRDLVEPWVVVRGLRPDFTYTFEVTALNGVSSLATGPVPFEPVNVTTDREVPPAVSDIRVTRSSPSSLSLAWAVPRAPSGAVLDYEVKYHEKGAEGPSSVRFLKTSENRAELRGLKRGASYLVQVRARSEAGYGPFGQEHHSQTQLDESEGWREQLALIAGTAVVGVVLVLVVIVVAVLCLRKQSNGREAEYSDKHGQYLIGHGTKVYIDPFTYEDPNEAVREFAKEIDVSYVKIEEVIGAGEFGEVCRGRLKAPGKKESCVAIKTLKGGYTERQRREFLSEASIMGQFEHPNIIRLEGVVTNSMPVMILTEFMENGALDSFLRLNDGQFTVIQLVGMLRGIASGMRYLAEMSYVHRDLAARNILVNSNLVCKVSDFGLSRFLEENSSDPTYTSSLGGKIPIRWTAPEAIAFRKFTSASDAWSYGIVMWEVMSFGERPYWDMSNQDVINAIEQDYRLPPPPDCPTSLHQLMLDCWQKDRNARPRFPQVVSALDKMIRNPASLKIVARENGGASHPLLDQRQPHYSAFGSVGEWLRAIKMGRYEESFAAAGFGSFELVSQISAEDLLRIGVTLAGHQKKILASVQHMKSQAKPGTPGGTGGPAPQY
Assay: Inhibition of EphB4 (unknown origin) by FRET-based enzymatic assay in presence of 30 uM ATP; call rule not given here

Structure (SMILES): Cc1ccc(-c2csc(NC(=O)CCCC(=O)O)c2C(N)=O)cc1C
- IC50 (read-out: IC50): 8 µM

Structure (SMILES): Cc1ccc(-n2nc(C(C)(C)C)cc2NC(=O)Nc2ccc(OCCN3CCOCC3)c3ccccc23)cc1 [DORAMAPIMOD]
- IC50: Not Active
